These results are taken from patent US20240285552A1 (priority 2020, published 2024).

Series [1] is described as follows: in vitro. The note with it: African green monkey.
The next series deals with SARS-CoV-2 USA_WA1/2020. The series is described as follows: microbe, parasite or virus in culture. The series is classed as cell-based.
The subject of series [2] is SARS CoV-2 nanoluciferase reporter virus. The series is described as follows: microbe, parasite or virus in culture. Type of series: cell-based. The note with it: for Concentration at Maximum % Inhibition / Maximum Inhibition: A549-ACE2, NLRV; for IC50: read-out: IC50, viral replication, Nanoluciferase Reporter Virus Assay.
Series [3] in a line: in vitro. The note with it: human.
Another series has as its system Vero E6 cells. The note with it: Example C (Table 4); for Conc. at Max. % Viability / Conc. at Min. % Viability / Max. Viability / Min. Viability: Vero E6.
Series [4] addresses T1, recombinant human ACE2 (rhACE2) (Homo sapiens, UniProt Q9BYF1).
T1 construct: purchased BPS Bioscience 79923
Description: ACE2 inhibitor screening assay (exopeptidase activity), CLQ and analogues, ZnCl2. Type of series: biochemical. As to the method:
An ACE2 inhibitor screening assay kit with fluorogenic substrate (Catalogue #79923) was purchased from BPS Bioscience (San Diego, CA) and adapted to measure the exopeptidase activity of ACE2 in the presence and absence of inhibitors. The fluorescence assay was performed using a black flat-bottom 96-well plate with a final reaction volume of 50 μL following the manufacturer's instructions. 10 mM stock solutions of the compounds were prepared in Dimethyl sulfoxide (DMSO). Next, the compounds were serially diluted in DMSO as follows: 100 μM, 50 μM, 10 μM, 1 μM, 0.5 μM, and 0.1 μM for CLQ and CLBQ14 as well as 10 μM and 1 μM for CLCQ. All experiments were performed in triplicates. Each plate contained a positive control of enzyme-treated with vehicle alone (2% DMSO) and a blank control with no enzyme. Briefly, each reaction contained 24 μL of purified recombinant human ACE2 protein (0.42 ng/L) in ACE2 buffer, 1 μL of compound at serially diluted concentrations, and 25 μL ACE2 fluorogenic substrate. The total reaction volume was 50 μL. […] Thereafter, the fluorescence intensities (λExcitation=535 nm, λEmission=595 nm) were measured using a Beckman Coulter DTX880 multimode plate reader. […]
The effects of CLQ, CLBQ14, and CLCQ on the exopeptidase activity of rhACE2 were determined using a fluorometric assay provided by BPS Bioscience and adapted accordingly. […]

Series [5] addresses T2, rhACE2 and SARS-CoV-2 Spike (RBD) protein interaction (Homo sapiens, UniProt Q9BYF1).
T2 construct: purchased RayBiotech CoV-SACE2-1
The series is described as follows: Spike (RBD)-ACE2 binding assay (ELISA). The note with it: bell shaped dose-response curve; CLQ series; read-out: IC50_2, ACE2-Spike (RBD) protein interaction. On the set-up: species or system human; SARS-CoV-2. For orientation: In an ELISA, binding on a coated surface is turned into a signal by an enzyme label.

[6] abbreviates: 50% cytotoxic concentration (CC50), Vero E6, 72 hours, Examples A and B, highest concentration 30 μM.
Where [7] appears, read: Severe acute respiratory syndrome coronavirus 2, Vero C1008, 72 h, read-out: IC50 against SARS-CoV-2 infection induced CPE.
The mark [8] stands for this setting: Cytotoxicity CC50, Vero E6, 72 hours, Example C (Table 4).
Where [9] appears, read: Cytotoxicity CC50, A549 cells, 72 hours.
Setting [10] is: Example C (Table 3), read-out: IC 50 against SARS-COV-2 Induced Cytopathic Effect in Vero E6 Cells.
[11] abbreviates: Severe acute respiratory syndrome coronavirus 2, Vero C1008, Example C (Table 3), read-out: IC 50 against SARS-COV-2 Induced Cytopathic Effect in Vero E6 Cells.
The mark [12] stands for this setting: Severe acute respiratory syndrome coronavirus 2, Vero C1008, Vero E6, Example B, highest concentration tested 30 μM, read-out: IC50 against SARS-CoV-2 infection induced CPE.
Where [13] appears, read: Severe acute respiratory syndrome coronavirus 2, A549, 72 h.

Structures are written as SMILES. Read-outs that look alike come from different tables or passages of the source. Residues, ends and D or L forms follow the SMILES beside them. *: point of attachment. Cbz = O=C(OCc1ccccc1)*; CH2F = FC*

T1 sequence (Q9BYF1 18-805): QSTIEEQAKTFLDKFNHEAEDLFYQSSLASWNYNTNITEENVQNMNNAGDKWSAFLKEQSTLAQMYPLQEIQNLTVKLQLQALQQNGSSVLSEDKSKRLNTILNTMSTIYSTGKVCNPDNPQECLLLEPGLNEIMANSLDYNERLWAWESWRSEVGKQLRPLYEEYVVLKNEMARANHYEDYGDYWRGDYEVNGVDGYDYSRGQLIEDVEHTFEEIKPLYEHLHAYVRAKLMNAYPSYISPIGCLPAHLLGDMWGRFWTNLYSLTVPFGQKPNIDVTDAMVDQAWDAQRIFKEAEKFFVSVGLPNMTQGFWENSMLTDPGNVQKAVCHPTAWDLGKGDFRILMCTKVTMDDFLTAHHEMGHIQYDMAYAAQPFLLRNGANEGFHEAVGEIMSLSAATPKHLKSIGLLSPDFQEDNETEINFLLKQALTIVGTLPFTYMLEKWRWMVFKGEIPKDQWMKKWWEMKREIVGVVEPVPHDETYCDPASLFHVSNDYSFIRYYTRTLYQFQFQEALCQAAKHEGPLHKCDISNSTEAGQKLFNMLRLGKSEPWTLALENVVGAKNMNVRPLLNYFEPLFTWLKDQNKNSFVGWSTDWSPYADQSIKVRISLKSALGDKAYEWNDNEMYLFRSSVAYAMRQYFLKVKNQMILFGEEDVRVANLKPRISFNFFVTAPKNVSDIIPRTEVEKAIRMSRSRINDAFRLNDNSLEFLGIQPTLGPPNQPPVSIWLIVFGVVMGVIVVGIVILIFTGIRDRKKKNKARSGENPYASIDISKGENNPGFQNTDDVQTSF
T2 sequence (Q9BYF1 18-740): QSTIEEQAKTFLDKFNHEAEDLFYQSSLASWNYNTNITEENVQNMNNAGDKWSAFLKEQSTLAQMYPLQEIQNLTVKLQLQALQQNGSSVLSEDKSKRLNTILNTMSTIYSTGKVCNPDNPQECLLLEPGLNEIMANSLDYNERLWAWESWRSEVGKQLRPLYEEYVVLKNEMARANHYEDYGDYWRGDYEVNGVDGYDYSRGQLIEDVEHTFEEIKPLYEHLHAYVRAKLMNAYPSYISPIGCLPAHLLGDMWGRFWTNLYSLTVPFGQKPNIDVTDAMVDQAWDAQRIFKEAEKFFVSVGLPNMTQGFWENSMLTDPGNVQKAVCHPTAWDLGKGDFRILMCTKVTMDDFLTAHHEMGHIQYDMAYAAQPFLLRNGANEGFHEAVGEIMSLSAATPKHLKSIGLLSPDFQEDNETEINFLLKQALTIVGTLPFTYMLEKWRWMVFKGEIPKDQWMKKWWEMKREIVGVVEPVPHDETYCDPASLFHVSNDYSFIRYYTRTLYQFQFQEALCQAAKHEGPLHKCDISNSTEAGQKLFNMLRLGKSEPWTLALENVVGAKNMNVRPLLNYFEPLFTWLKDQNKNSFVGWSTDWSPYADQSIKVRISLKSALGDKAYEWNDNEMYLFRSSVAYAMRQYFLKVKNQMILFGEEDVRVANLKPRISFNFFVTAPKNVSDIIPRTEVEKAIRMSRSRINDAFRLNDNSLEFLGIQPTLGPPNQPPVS

As to `Oc1c(Cl)cc(Cl)c2cccnc12` [CLCQ, 5,7-Dichloro-8-hydroxyquinoline], the CC50 in the series “in vitro [1]” (setting [6]) was > 30 µM. Besides, in the series with SARS-CoV-2 USA_WA1/2020 (setting [7]), the IC50 worked out at 16.3 µM.
In the case of `CCC(CC)COC(=O)[C@H](C)N[P@](=O)(OC[C@H]1O[C@@](C#N)(c2ccc3c(N)ncnn23)[C@H](O)[C@@H]1O)Oc1ccccc1` [Remdesivir], the results for the “Concentration at Maximum % Inhibition” value (in series [2]; in the series with SARS-CoV-2 USA_WA1/2020 (Example C (Table 3))) were 1.5 µM and 30 µM, respectively. Further, the “Maximum Inhibition” value was determined as 99.58% in series [2] and 120.89% with SARS-CoV-2 USA_WA1/2020 (Example C (Table 3)). For the same compound, the CC50 in “in vitro [1]” (setting [8]) is > 30 µM; in the series “in vitro [3]” (setting [9]), > 3 µM. For the same compound, the IC50 with SARS-CoV-2 USA_WA1/2020 (setting [10]) came to 16.1 µM; in the series on SARS-CoV-2 USA_WA1/2020 (setting [7]), 4.42 µM; in the series on SARS-CoV-2 USA_WA1/2020 (setting [11]), 16 µM; with SARS-CoV-2 USA_WA1/2020 (setting [12]), 8.54 µM. For the same compound, the “Conc. at Max. % Viability” value with Vero E6 cells worked out at 3750 nM; in the series on A549 cells, 6 nM. Also, the “Conc. at Min. % Viability” value in the series on Vero E6 cells worked out at 117 nM; with A549 cells, 94 nM. The “Max. Viability” value in the series with Vero E6 cells is reported as 100.73%; with A549 cells it was 95.46%. Besides, the figures for the “Min. Viability” value in the series on Vero E6 cells and in the series on A549 cells were 91.15% and 84.65%, respectively.
For the compound `[Cl-].[Cl-].[Zn+2]` [ZnCl2, Zinc Chloride], the “effect on rhACE2 exopeptidase activity” value in series [4] (100 μM to 100 nM) is “increasing exopeptidase activity”.
Consider `CCN(CCO)CCCC(C)Nc1ccnc2cc(Cl)ccc12` (centres unmarked) [Hydroxychloroquine], for which the IC50 was determined as 5.04 µM with SARS-CoV-2 USA_WA1/2020 (setting [7]) and 5.16 µM in the series on SARS-CoV-2 USA_WA1/2020 (setting [12]).
In the case of `CC(C)C[C@H](NC(=O)OCc1ccccc1)C(=O)N[C@@H](CC(C)C)C(=O)N[C@@H](Cc1ccc(O)cc1)C(=O)CF` [Calpain Inhibitor IV] (Cbz-Leu-Leu-Tyr-CH2F), the “Concentration at Maximum % Inhibition” value in series [2] is “.0028 µM”; in the series with SARS-CoV-2 USA_WA1/2020 (Example C (Table 3)), 7.17 µM. For the same compound, the “Maximum Inhibition” value is 99.56% in series [2] and 115.91% with SARS-CoV-2 USA_WA1/2020 (Example C (Table 3)). The IC50 amounted to 0.0005 µM in series [2]; 0.29 µM with SARS-CoV-2 USA_WA1/2020 (Vero E6, Example B, highest concentration tested 30 μM, read-out: IC50 against SARS-CoV-2 infection induced CPE); 3.73 µM with SARS-CoV-2 USA_WA1/2020 (read-out: IC 50 against SARS-COV-2 Induced Cytopathic Effect in Vero E6 Cells); 0.41 µM in the series on SARS-CoV-2 USA_WA1/2020 (read-out: IC50 against SARS-CoV-2 infection induced CPE). Further, the “Conc. at Max. % Viability” value in the series with Vero E6 cells was 56 nM; in the series on A549 cells it was 90 nM. The “Conc. at Min. % Viability” value in the series with Vero E6 cells worked out at 28 nM; in the series on A549 cells, 5.6 nM. The “Max. Viability” value was found to be 106.84% in the series with Vero E6 cells and 94.37% in the series on A549 cells. Besides, the “Min. Viability” value in the series with Vero E6 cells amounted to 99.77%; in the series on A549 cells it was 77.49%. The CC50 in the series with Vero E6 cells (read-out: Cytotoxicity CC50, Vero E6, 72 hours) was > 7.17 µM; in the series with A549 cells (read-out: Cytotoxicity CC50, 72 hours), > 0.179 µM.
For the compound `CC(C)(C)[C@H](NC(=O)C(F)(F)F)C(=O)N1C[C@H]2[C@@H]([C@H]1C(=O)N[C@H](C#N)C[C@@H]1CCNC1=O)C2(C)C` [PF-07321332], in series [2], the “Concentration at Maximum % Inhibition” value is 0.5 µM, the “Maximum Inhibition” value is on record as 99.67% and the IC50 was found to be 0.057 µM. Besides, the IC50 in series [2] (listed as Paxlovid) came out at 0.05 µM.
With `CC(C)C(=O)OC[C@H]1O[C@@H](n2ccc(NO)nc2=O)[C@H](O)[C@@H]1O` [Molnupiravir], in series [2], the “Concentration at Maximum % Inhibition” value amounted to 10 µM and the “Maximum Inhibition” value is 91.12%. Also, the IC50 in series [2] (setting [13]) came out at 4.2 µM. For the same compound, the CC50 at 72 h in the series “in vitro [3]” (setting [9]) was > 10 µM. In addition, in the series with A549 cells, the “Conc. at Max. % Viability” value stood at 2 nM, the “Conc. at Min. % Viability” value is 14 nM, the “Max. Viability” value was 98.56% and the “Min. Viability” value was 88.88%.
On to `CCN(CC)CCCC(C)Nc1ccnc2cc(Cl)ccc12` (centres unmarked) [Chloroquine], for which the “Concentration at Maximum % Inhibition” value in series [2] came to 15 µM; with SARS-CoV-2 USA_WA1/2020 (Example C (Table 3)), 30 µM. Further, the “Maximum Inhibition” value amounted to 99.53% in series [2] and 114.51% with SARS-CoV-2 USA_WA1/2020 (Example C (Table 3)). Moreover, the IC50 was 3.3 µM in series [2] (setting [13]), 1.1 µM in the series on SARS-CoV-2 USA_WA1/2020 (setting [7]), 8.85 µM in the series on SARS-CoV-2 USA_WA1/2020 (setting [11]) and 3.56 µM in the series on SARS-CoV-2 USA_WA1/2020 (setting [12]). Further, the CC50 at 72 h in “in vitro [1]” is > 30 µM; in “in vitro [3]”, 18.4 µM. The “Conc. at Max. % Viability” value in the series on Vero E6 cells worked out at 469 nM; with A549 cells, 23 nM. For the same compound, the “Conc. at Min. % Viability” value in the series on Vero E6 cells was 3750 nM; in the series on A549 cells, 30000 nM. Moreover, the figures for the “Max. Viability” value in the series on Vero E6 cells and in the series on A549 cells were 99.66% and 117.48%, respectively. For the same compound, the figures for the “Min. Viability” value in the series with Vero E6 cells and in the series with A549 cells were 90.50% and 9.11%, respectively.
Take `CCOC(=O)[C@H]1O[C@@H]1C(=O)N[C@@H](CC(C)C)C(=O)NCCC(C)C` [Aloxistatin]: the CC50 at 72 h in “in vitro [1]” (setting [8]) is > 30 µM. In addition, in the series with SARS-CoV-2 USA_WA1/2020 (Example C (Table 3)), the “Concentration at Maximum % Inhibition” value came to 15 µM and the “Maximum Inhibition” value turned out to be 130.81%. The IC50 in the series with SARS-CoV-2 USA_WA1/2020 (setting [10]) was determined as 4.59 µM. In the series with SARS-CoV-2 USA_WA1/2020 (setting [7]), the IC50 was found to be 16.7 µM. Besides, the IC50 with SARS-CoV-2 USA_WA1/2020 (setting [11]) was 4.58 µM. Moreover, the IC50 in the series with SARS-CoV-2 USA_WA1/2020 (setting [12]) was 21.8 µM. Besides, in the series with Vero E6 cells, the “Conc. at Max. % Viability” value stood at 234 nM, the “Conc. at Min. % Viability” value came out at 117 nM, the “Max. Viability” value was found to be 106.71% and the “Min. Viability” value was found to be 93.02%.
The term inhibition denotes the change of the read-out against control, counted positive when it falls. As for `Oc1c(Br)cc(Cl)c2cccnc12` [CLBQ14, 7-bromo-5-chloro-8-hydroxyquinoline], the CC50 at 72 h in “in vitro [1]” (setting [6]) was > 30 µM. Further, the IC50 in the series on SARS-CoV-2 USA_WA1/2020 (setting [7]) came to 14.7 µM. For the same compound, the inhibition at 30 µM with SARS-CoV-2 USA_WA1/2020 (Severe acute respiratory syndrome coronavirus 2, Vero C1008, at 30 μM, Example A, read-out: maximum inhibition of CPE) was ~103%.
Take `Oc1c(I)cc(Cl)c2cccnc12` [CLQ, 5-chloro-7-iodo-8-quinolinol]: the IC50 stood at 5.36 µM in series [4] (2.5 hours, room temperature, read-out: IC50 against rhACE2 exopeptidase activity); 12.6 µM with SARS-CoV-2 USA_WA1/2020 (setting [7]); 18.2 µM in series [5]. The CC50 at 72 h in the series “in vitro [1]” (setting [6]) was > 30 µM.
